Measured values as given in ChEMBL document CHEMBL1140687, “Quinazoline derivatives as MC-I inhibitors: evaluation of myocardial uptake using Positron Emission Tomography in rat and non-human primate” (Bioorg Med Chem Lett, 2007).

Key:
[1] = Inhibition of MC1 by NADH-DB reductase assay; design: species or system Homo sapiens
Liver [2] = assay: Biodistribution in Sprague-Dawley rat liver at 15 uCi, iv after 120 mins; type: ADME, organism-based; settings: in vivo, 2 h
Spleen [3] = assay: Biodistribution in Sprague-Dawley rat spleen at 15 uCi, iv after 120 mins; type: ADME, organism-based; settings: in vivo, 2 h
Kidney [4] = assay: Biodistribution in Sprague-Dawley rat kidney at 15 uCi, iv after 120 mins; type: ADME, organism-based; settings: in vivo, 2 h
Rattus norvegicus [5] = assay: Biodistribution in Sprague-Dawley rat urine at 15 uCi, iv after 120 mins; type: ADME, organism-based; settings: in vivo, 2 h
Muscle tissue [6] = assay: Biodistribution in Sprague-Dawley rat muscle at 15 uCi, iv after 120 mins; type: ADME, organism-based; settings: in vivo, 2 h
Nucleic Acid [7] = assay: Ratio of drug uptake in heart to liver of Sprague-Dawley rat at 30 mins; type: ADME; settings: in vivo, 0.5 h
Femur [8] = assay: Biodistribution in Sprague-Dawley rat femur at 15 uCi, iv after 120 mins; type: ADME, organism-based; settings: in vivo, 2 h
Nucleic Acid [9] = assay: Ratio of drug uptake in heart to lung of Sprague-Dawley rat at 30 mins; type: ADME; settings: in vivo, 0.5 h
Nucleic Acid [10] = assay: Ratio of drug uptake in heart to lung of Sprague-Dawley rat at 60 mins; type: ADME; settings: in vivo, 1 h
Nucleic Acid [11] = assay: Ratio of drug uptake in heart to liver of Sprague-Dawley rat at 60 mins; type: ADME; settings: in vivo, 1 h
Nucleic Acid [12] = assay: Ratio of drug uptake in heart to femur of Sprague-Dawley rat at 60 mins; type: ADME; settings: in vivo, 1 h
Heart [13] = assay: Biodistribution in Sprague-Dawley rat heart at 15 uCi, iv after 30 mins; type: ADME, organism-based; settings: in vivo, 0.5 h
Blood [14] = assay: Biodistribution in Sprague-Dawley rat blood at 15 uCi, iv after 30 mins; type: ADME, organism-based; settings: in vivo, 0.5 h
Lung [15] = assay: Biodistribution in Sprague-Dawley rat lung at 15 uCi, iv after 30 mins; type: ADME, organism-based; settings: in vivo, 0.5 h
Liver [16] = assay: Biodistribution in Sprague-Dawley rat liver at 15 uCi, iv after 30 mins; type: ADME, organism-based; settings: in vivo, 0.5 h
Spleen [17] = assay: Biodistribution in Sprague-Dawley rat spleen at 15 uCi, iv after 30 mins; type: ADME, organism-based; settings: in vivo, 0.5 h
Kidney [18] = assay: Biodistribution in Sprague-Dawley rat kidney at 15 uCi, iv after 30 mins; type: ADME, organism-based; settings: in vivo, 0.5 h
Rattus norvegicus [19] = assay: Biodistribution in Sprague-Dawley rat urine at 15 uCi, iv after 30 mins; type: ADME, organism-based; settings: in vivo, 0.5 h
Muscle tissue [20] = assay: Biodistribution in Sprague-Dawley rat muscle at 15 uCi, iv after 30 mins; type: ADME, organism-based; settings: in vivo, 0.5 h
Femur [21] = assay: Biodistribution in Sprague-Dawley rat femur at 15 uCi, iv after 30 mins; type: ADME, organism-based; settings: in vivo, 0.5 h
Heart [22] = assay: Biodistribution in Sprague-Dawley rat heart at 15 uCi, iv after 120 mins; type: ADME, organism-based; settings: in vivo, 2 h
Blood [23] = assay: Biodistribution in Sprague-Dawley rat blood at 15 uCi, iv after 120 mins; type: ADME, organism-based; settings: in vivo, 2 h
Lung [24] = assay: Biodistribution in Sprague-Dawley rat lung at 15 uCi, iv after 120 mins; type: ADME, organism-based; settings: in vivo, 2 h

Which IC50 [1] does the source give for `CC(C)(C)c1ccc(CNc2ncnc3ccccc23)cc1` here?
Its IC50 is 241 nM.

Which IC50 [1] does the source give for `CCCC(O)c1ccc(CCOc2ncnc3ccccc23)cc1` (configuration not stated) here?
Its IC50 is 21.7 nM.

For `CCCCc1ccc(COc2ncnc3ccccc23)cc1`, which IC50 [1] is on record?
The IC50 was 1000 nM.

Which IC50 [1] does the source give for `CCCC(F)c1ccc(CCOc2ncnc3ccccc23)cc1` (configuration not stated) here?
The IC50 was 19.3 nM.

With `OCCCCc1ccc(CCOc2ncnc3ccccc23)cc1` as the molecule, how does the IC50 [1] read?
The IC50 was 22.4 nM.

With `OCCCCc1ccc(COc2ncnc3ccccc23)cc1` as the molecule, how does the IC50 [1] read?
The IC50 was 414 nM.

With `CCCCc1ccc(CCOc2ncnc3ccccc23)cc1` as the molecule, how does the IC50 [1] read?
Its IC50 is 37.5 nM.

With `FCCCCCc1ccc(CCOc2ncnc3ccccc23)cc1` as the molecule, how does the IC50 [1] read?
The IC50 was 11.3 nM.

With `CC(C)(C)c1ccc(CCOc2ncnc3ccccc23)cc1` [FENAZAQUIN] as the molecule, how does the IC50 [1] read?
Its IC50 is 4 nM.

For `[18F]CCCCCc1ccc(CCOc2ncnc3ccccc23)cc1`, which Drug uptake (Liver [2]) is on record?
The Drug uptake was 0.44 % ID/g.

What about the Drug uptake (Spleen [3]) of the same molecule?
The Drug uptake was 0.07 % ID/g.

What about the Drug uptake (Kidney [4]) of the same molecule?
The Drug uptake was 0.68 % ID/g.

What about the Drug uptake (Rattus norvegicus [5]) of the same molecule?
The Drug uptake was 4.44 % ID/g.

And the Drug uptake (Muscle tissue [6])?
Its Drug uptake is 0.12 % ID/g.

What about the Ratio (Nucleic Acid [7]) of the same molecule?
The Ratio was 23.

What about the Drug uptake (Femur [8]) of the same molecule?
Its Drug uptake is 0.65 % ID/g.

What about the Ratio (Nucleic Acid [9]) of the same molecule?
Its Ratio is 11.3.

What about the Ratio (Nucleic Acid [10]) of the same molecule?
Its Ratio is 2.5.

And the Ratio (Nucleic Acid [11])?
Its Ratio is 5.7.

And the Ratio (Nucleic Acid [12])?
The Ratio was 3.6.

And the Drug uptake (Heart [13])?
Its Drug uptake is 3.22 % ID/g.

And the Drug uptake (Blood [14])?
The Drug uptake was 0.08 % ID/g.

And the Drug uptake (Lung [15])?
The Drug uptake was 0.28 % ID/g.

And the Drug uptake (Liver [16])?
Its Drug uptake is 1.29 % ID/g.

What about the Drug uptake (Spleen [17]) of the same molecule?
The Drug uptake was 0.19 % ID/g.

And the Drug uptake (Kidney [18])?
The Drug uptake was 1.99 % ID/g.

And the Drug uptake (Rattus norvegicus [19])?
The Drug uptake was 0.5 % ID/g.

What about the Drug uptake (Muscle tissue [20]) of the same molecule?
The Drug uptake was 0.08 % ID/g.

What about the Drug uptake (Femur [21]) of the same molecule?
The Drug uptake was 0.19 % ID/g.

What about the Drug uptake (Heart [22]) of the same molecule?
Its Drug uptake is 2.5 % ID/g.

What about the Drug uptake (Blood [23]) of the same molecule?
Its Drug uptake is 0.06 % ID/g.

And the Drug uptake (Lung [24])?
The Drug uptake was 0.11 % ID/g.
